Experimental data published in article PMC12663137 (Nature Communications, 2025).
Values joined by “and” are separate entries in the source; they are usually repeats but may differ in a detail not shown here. Equal entries are not always repeated.

Assays:
[1] = target: T1, SV2A (Homo sapiens, UniProt Q7L0J3); assay: Steady-state (saturation) binding of 3H-UCB-J with 30 µM UCB1244283 or 1% DMSO (Fig. 4A)
T1 construct: expressed in transfected cells; host or cells: HEK293 (ATCC CRL-1573), crude membranes
T1 sequence (Q7L0J3 whole entry): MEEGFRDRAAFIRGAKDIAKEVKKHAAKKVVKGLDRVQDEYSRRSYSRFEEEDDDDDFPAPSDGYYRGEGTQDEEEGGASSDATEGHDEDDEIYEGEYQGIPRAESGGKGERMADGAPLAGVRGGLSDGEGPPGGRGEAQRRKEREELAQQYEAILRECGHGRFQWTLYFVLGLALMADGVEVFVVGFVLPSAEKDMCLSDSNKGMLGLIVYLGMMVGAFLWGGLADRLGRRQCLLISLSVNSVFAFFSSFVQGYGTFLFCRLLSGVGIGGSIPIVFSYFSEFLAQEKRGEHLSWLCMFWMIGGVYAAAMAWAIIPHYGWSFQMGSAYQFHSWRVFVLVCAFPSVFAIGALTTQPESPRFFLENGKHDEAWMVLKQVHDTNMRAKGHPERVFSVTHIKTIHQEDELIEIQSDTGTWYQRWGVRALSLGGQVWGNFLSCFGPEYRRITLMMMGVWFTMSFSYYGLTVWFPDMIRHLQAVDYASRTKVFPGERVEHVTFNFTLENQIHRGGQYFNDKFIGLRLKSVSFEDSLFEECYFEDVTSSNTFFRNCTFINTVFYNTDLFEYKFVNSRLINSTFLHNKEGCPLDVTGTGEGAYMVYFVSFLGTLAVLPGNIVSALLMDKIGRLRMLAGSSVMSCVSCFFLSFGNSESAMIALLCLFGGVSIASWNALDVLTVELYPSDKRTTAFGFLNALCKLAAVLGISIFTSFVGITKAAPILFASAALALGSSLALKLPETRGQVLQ
Protocol: (§1) Ligand binding studies were carried out using crude membranes prepared from HEK293 cells (ATCC, CRL-1573) overexpressing mVenus-SV2AWT or SV2AEM. Membranes were prepared either from transiently transfected cells or from baculovirus-infected cells as described previously. Cells were washed with DPBS (Ca^2+ and Mg^2+ free), followed by resuspending in cold SH buffer (10 mM HEPES-Tris pH 7.4, 320 mM sucrose) containing protease inhibitor cocktail (MedChemExpress) to a density of 10^7 cells/ml. This cell suspension was homogenized by passing through a bead homogenizer (Isobiotec) with 10-micron clearance bead on ice. The lysate was then centrifuged at 4000 × g for 5 min at 4 °C, and the supernatant was aliquoted, frozen in liquid nitrogen, and stored at −80 °C. The mVenus fluorescence estimated using fluorescence size-exclusion chromatography (FSEC) was used to normalize expression levels of mVenus-SV2A mutants studied as detailed previously. For all binding studies, membranes containing […] protein (estimated by BCA method) per reaction were used.
(§2) An equal volume of dimethyl sulfoxide (DMSO) was added to control reactions. Reactions were arrested after 2 h by trapping the membranes on a Unifilter-GF/C 96-well filter plate pre-soaked with 0.1%(w/v) polyethyleneimine. Membranes were washed four times with 0.2 ml of cold binding buffer, dried, and 40 µl of scintillation liquid was added to each well. Radioactivity was monitored in MicroBeta2 plate counter. Residual binding observed in presence of either 10 µM ^1H-UCB-J or 10 µM ^1H-padsevonil was considered as background and subtracted from total binding. Estimates for Kd and Bmax were obtained by fitting the data to one site-specific binding curve using GraphPad Prism 10.

[2] = target: T2, SV2A WT and mutants (Homo sapiens, UniProt Q7L0J3, L655A); assay: Modulatory effect of 30 µM UCB1244283 on 3H-UCB-J binding, effect of mutations (Fig. 4D); details: L655A
T2 construct: expressed in transfected cells; host or cells: HEK293 (ATCC CRL-1573), crude membranes
T2 sequence (Q7L0J3 whole entry L655A): as the sequence (Q7L0J3 whole entry) above, with L655A counted along it
Protocol: (§3) Data are shown as mean ± s.d.; n = 6 biological replicates. […] Data are shown as mean ± s.d.; n = 6 biological replicates. […] Residual binding observed at 70 min was defined as 0%. For WT, data are shown as mean ± s.d. […] For the DMSO group, data are shown as mean ± s.d. (n = 4 biological replicates); for the other groups, data are shown as mean (n = 2). Source data for (A, D, E, F) are provided as a Source data file.
as §1, §2

[3] = target: T3, SV2A WT and mutants (Homo sapiens, UniProt Q7L0J3, L655Q); assay: as above; details: L655Q
T3 construct: expressed in transfected cells; host or cells: HEK293 (ATCC CRL-1573), crude membranes
T3 sequence (Q7L0J3 whole entry L655Q): as the sequence (Q7L0J3 whole entry) above, with L655Q counted along it
Protocol: as §3, §1, §2

[4] = target: T4, SV2A WT and mutants (Homo sapiens, UniProt Q7L0J3, M301A); assay: as above; details: M301A; 30 µM; enhancement in SV2AWT defined as 100%
T4 construct: expressed in transfected cells; host or cells: HEK293 (ATCC CRL-1573), crude membranes
T4 sequence (Q7L0J3 whole entry M301A): as the sequence (Q7L0J3 whole entry) above, with M301A counted along it
Protocol: as §3, §1, §2

[5] = tested on: SV2A WT and mutants; assay: as above; set-up: species or system human; details: Phe188, Tyr461 or Ser601 mutated to alanine
Protocol: as §3, §1, §2

[6] = target: T5, SV2AEM WT or SV2AEM F188A (Homo sapiens, UniProt Q7L0J3, F188A); assay: Dissociation kinetics of 3H-UCB-J (Fig. 4E); format: binding; details: F188A
T5 construct: expressed in transfected cells; host or cells: HEK293 (ATCC CRL-1573), crude membranes
T5 sequence (Q7L0J3 141-742 F188A): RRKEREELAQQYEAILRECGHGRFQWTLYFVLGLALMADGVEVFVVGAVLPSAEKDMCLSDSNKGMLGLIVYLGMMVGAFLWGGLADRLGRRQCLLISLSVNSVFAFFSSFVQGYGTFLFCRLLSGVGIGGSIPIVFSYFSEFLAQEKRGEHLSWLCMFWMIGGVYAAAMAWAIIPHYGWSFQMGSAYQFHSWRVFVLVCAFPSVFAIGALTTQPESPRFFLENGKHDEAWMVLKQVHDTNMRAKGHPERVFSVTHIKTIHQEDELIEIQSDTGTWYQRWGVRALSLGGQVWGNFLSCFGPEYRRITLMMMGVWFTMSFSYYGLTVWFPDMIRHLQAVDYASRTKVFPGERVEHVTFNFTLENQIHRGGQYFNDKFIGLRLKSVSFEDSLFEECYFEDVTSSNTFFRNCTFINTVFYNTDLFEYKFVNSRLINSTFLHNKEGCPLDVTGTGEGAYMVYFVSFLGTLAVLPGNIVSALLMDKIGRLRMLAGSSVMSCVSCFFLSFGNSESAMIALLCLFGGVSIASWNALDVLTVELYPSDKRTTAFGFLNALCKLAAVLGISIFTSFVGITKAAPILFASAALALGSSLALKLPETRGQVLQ
Protocol: as §1
After 2 h of incubation, ligand dissociation was initiated with 0.3 µM ^1H-UCB-J and radioactivity was monitored at indicated time points by trapping equal volume of membranes on PEI-treated Unifilter-GF/C 96-well filter plates. Dissociation half-life (t1/2) estimates were obtained by fitting the data to one-phase exponential decay using GraphPad Prism 10.

[7] = target: T6, SV2AEM (Homo sapiens, UniProt Q7L0J3); assay: Association kinetics of 3H-UCB-J after pre-incubation with UCB1244283 (Fig. 4F); format: binding
T6 construct: expressed in transfected cells; host or cells: HEK293 (ATCC CRL-1573), crude membranes (transient transfection or baculovirus)
T6 sequence (Q7L0J3 141-742): as the sequence (Q7L0J3 141-742 F188A) above, with A48F counted along it
Protocol: as §1
Residual radioligand binding observed in presence of 10 µM of ^1H-UCB-J was considered as background binding.

[8] = target: T1, SV2A; assay: Reduction of 3H-padsevonil (50 nM) binding by UCB1244283 (Fig. 5F); details: for 3H-Padsevonil binding (%): no UCB1244283 = 100%
Protocol: Binding observed with SV2AWT was defined as 100%. Data are shown as mean ± s.d.; n = 6 biological replicates. […] Data are shown as mean ± s.d.; n = 6 biological replicates. Significance values were obtained from ordinary one-way ANOVA test (n.s. not significant; **p-value = 0.0064; ****p-value < 0.0001). Source data for (C, F) are provided as a Source data file.
as §1

[9] = tested on: tonic and clonic convulsions; set-up: method as in Daniels et al., Br J Pharmacol. 2013; details: UCB1244283 alone; ref Daniels et al., Br J Pharmacol. 2013; cited from earlier work

- 3H-UCB-J Binding (f.mol/assay) ([1]; 3H-UCB-J 0.78 nM): 6 f.mol/assay and 7 f.mol/assay
- allosteric modulation of 3H-UCB-J binding [2]: did not impair modulation
- allosteric modulation of 3H-UCB-J binding [3]: abolished allosteric modulation
- allosteric potentiation of 3H-UCB-J binding [5]: loss of allosteric potentiation
- 3H-UCB-J Binding (%) ([6]; 30 µM UCB1244283, 0 min): 110.44% and 123.64%
- 3H-UCB-J Binding (%) ([6]; 30 µM UCB1244283, 4 min): 30.89% and 37.36%
- 3H-UCB-J Binding (%) ([6]; 30 µM UCB1244283, 7 min): 29.68% and 19.59%
- 3H-UCB-J Binding (%) ([6]; 30 µM UCB1244283, 8 min): 17.69% and 24.42%
- 3H-UCB-J Binding (%) ([6]; 30 µM UCB1244283, 9 min): 11.91% and 16.05%
- 3H-UCB-J Binding (%) ([6]; 30 µM UCB1244283, 10 min): 2.24% and 11.65%
- 3H-UCB-J Binding (%) ([6]; 30 µM UCB1244283, 15 min): -0.26% and 9.40%
- 3H-UCB-J Binding (%) ([6]; 30 µM UCB1244283, 25 min): -3.97% and 3.97%
- 3H-UCB-J Binding (%) ([6]; 30 µM UCB1244283, 30 min): -0.60% and 3.19%
- 3H-UCB-J Binding (%) ([6]; 30 µM UCB1244283, 40 min): 2.93% and 0.35%
- 3H-UCB-J Binding (%) ([6]; 30 µM UCB1244283, 50 min): 6.38% and 7.42%
- 3H-UCB-J Binding (%) ([6]; 30 µM UCB1244283, 60 min): 10.53% and 0.69%
- 3H-UCB-J Binding (%) ([6]; 30 µM UCB1244283, 70 min): 5.09% and -0.95%
- 3H-UCB-J Binding (%) ([7]; pre-incubate 10 μM UCB1244283, 0 min): 0.02% and 0.00168%
- 3H-UCB-J Binding (%) ([7]; pre-incubate 10 μM UCB1244283, 0.5 min): 0.16% and 0.14%
- 3H-UCB-J Binding (%) ([7]; pre-incubate 10 μM UCB1244283, 1 min): 0.20% and 0.18%
- 3H-UCB-J Binding (%) ([7]; pre-incubate 10 μM UCB1244283, 1.5 min): 0.16% and 0.22%
- 3H-UCB-J Binding (%) ([7]; pre-incubate 10 μM UCB1244283, 2 min): 0.23% and 0.25%
- 3H-UCB-J Binding (%) ([7]; pre-incubate 10 μM UCB1244283, 2.5 min): 0.16% and 0.30%
- 3H-UCB-J Binding (%) ([7]; pre-incubate 10 μM UCB1244283, 3 min): 0.29% and 0.33%
- 3H-UCB-J Binding (%) ([7]; pre-incubate 10 μM UCB1244283, 3.5 min): 0.30% and 0.35%
- 3H-UCB-J Binding (%) ([7]; pre-incubate 10 μM UCB1244283, 4 min): 0.29% and 0.36%
- 3H-UCB-J Binding (%) ([7]; pre-incubate 10 μM UCB1244283, 4.5 min): 0.41% and 0.37%
- 3H-UCB-J Binding (%) ([7]; pre-incubate 10 μM UCB1244283, 5 min): 0.39%
- 3H-UCB-J Binding (%) ([7]; pre-incubate 30 μM UCB1244283, 0 min): 0.00112% and 0.00142%
- 3H-UCB-J Binding (%) ([7]; pre-incubate 30 μM UCB1244283, 0.5 min): 0.10%
- 3H-UCB-J Binding (%) ([7]; pre-incubate 30 μM UCB1244283, 1 min): 0.11%
- 3H-UCB-J Binding (%) ([7]; pre-incubate 30 μM UCB1244283, 1.5 min): 0.13% and 0.12%
- 3H-UCB-J Binding (%) ([7]; pre-incubate 30 μM UCB1244283, 2 min): 0.14%
- 3H-UCB-J Binding (%) ([7]; pre-incubate 30 μM UCB1244283, 2.5 min): 0.14% and 0.15%
- 3H-UCB-J Binding (%) ([7]; pre-incubate 30 μM UCB1244283, 3 min): 0.15%
- 3H-UCB-J Binding (%) ([7]; pre-incubate 30 μM UCB1244283, 3.5 min): 0.14% and 0.15%
- 3H-UCB-J Binding (%) ([7]; pre-incubate 30 μM UCB1244283, 4 min): 0.16%
- 3H-UCB-J Binding (%) ([7]; pre-incubate 30 μM UCB1244283, 4.5 min): 0.22% and 0.16%
- 3H-UCB-J Binding (%) ([7]; pre-incubate 30 μM UCB1244283, 5 min): 0.23% and 0.19%
SMILES: COc1ccccc1NC(=O)CC(C)Cc1cc(C)cc(C)c1 (centres unmarked) [UCB1244283]
- 3H-UCB-J Binding (f.mol/assay) ([1]; 3H-UCB-J 1.56 nM): 11 f.mol/assay and 8 f.mol/assay and 10 f.mol/assay and 13 f.mol/assay and 14 f.mol/assay
- 3H-UCB-J Binding (f.mol/assay) ([1]; 3H-UCB-J 6.25 nM): 35 f.mol/assay and 45 f.mol/assay and 39 f.mol/assay and 44 f.mol/assay and 54 f.mol/assay
- 3H-UCB-J Binding (f.mol/assay) ([1]; 3H-UCB-J 12.50 nM): 66 f.mol/assay and 56 f.mol/assay and 69 f.mol/assay and 73 f.mol/assay and 70 f.mol/assay and 60 f.mol/assay
- 3H-UCB-J Binding (f.mol/assay) ([1]; 3H-UCB-J 25.00 nM): 90 f.mol/assay and 106 f.mol/assay and 118 f.mol/assay and 84 f.mol/assay and 111 f.mol/assay
- 3H-UCB-J Binding (f.mol/assay) ([1]; 3H-UCB-J 50.00 nM): 82 f.mol/assay and 91 f.mol/assay and 128 f.mol/assay and 130 f.mol/assay and 116 f.mol/assay and 122 f.mol/assay
- 3H-UCB-J Binding (f.mol/assay) ([1]; 3H-UCB-J 100.00 nM): 104 f.mol/assay and 70 f.mol/assay and 121 f.mol/assay and 105 f.mol/assay and 88 f.mol/assay and 115 f.mol/assay
- UCB1244283 modulation (%) [4]: 204.26% and 178.72% and 164.89% and 193.57% and 161.39% and 224.53% and 226.42%
- displacement of padsevonil from SV2A [8]: can displace padsevonil from SV2A in a dose-dependent manner
- 3H-Padsevonil binding (%) ([8]; UCB1244283 10 μM): 91.0284% and 102.553% and 101.386% and 86.5062% and 91.3202%
- 3H-Padsevonil binding (%) ([8]; UCB1244283 30 μM): 87.2356% and 88.6944% and 95.6966% and 92.1955% and 71.6265% and 83.5886%
- 3H-Padsevonil binding (%) ([8]; UCB1244283 50 μM): 81.1087% and 81.984% and 86.5062% and 85.6309% and 65.7914% and 73.0853%
- 3H-Padsevonil binding (%) ([8]; UCB1244283 100 μM): 69.7301% and 72.0642% and 78.9205% and 76.5864% and 67.5419%
- 3H-Padsevonil binding (%) ([8]; UCB1244283 500 μM): 70.4595% and 69.4384% and 72.6477% and 70.0219% and 59.2268% and 71.4807%
- effect against convulsions [9]: clear protective effect against tonic and clonic convulsions
